ChEMBL document CHEMBL5053487 (J Med Chem, 2021)

Experiments:
[1] = Antiproliferative activity on human MCF7/TAMR-1 cells at 10 uM assessed as ratio of T/C measured up to 144 hrs relative to control; assay type: functional, MCF-7/TAMR-1
[2] = test system: MCF7; assay: Antiproliferative activity on human MCF7 cells at 5 to 20 uM assessed as ratio of T/C measured up to 144 hrs relative to control; assay type: functional; conditions: dose 5-20 µM
[3] = target: T1, Estrogen receptor (Homo sapiens, UniProt P03372)
T1 sequence (P03372 whole entry): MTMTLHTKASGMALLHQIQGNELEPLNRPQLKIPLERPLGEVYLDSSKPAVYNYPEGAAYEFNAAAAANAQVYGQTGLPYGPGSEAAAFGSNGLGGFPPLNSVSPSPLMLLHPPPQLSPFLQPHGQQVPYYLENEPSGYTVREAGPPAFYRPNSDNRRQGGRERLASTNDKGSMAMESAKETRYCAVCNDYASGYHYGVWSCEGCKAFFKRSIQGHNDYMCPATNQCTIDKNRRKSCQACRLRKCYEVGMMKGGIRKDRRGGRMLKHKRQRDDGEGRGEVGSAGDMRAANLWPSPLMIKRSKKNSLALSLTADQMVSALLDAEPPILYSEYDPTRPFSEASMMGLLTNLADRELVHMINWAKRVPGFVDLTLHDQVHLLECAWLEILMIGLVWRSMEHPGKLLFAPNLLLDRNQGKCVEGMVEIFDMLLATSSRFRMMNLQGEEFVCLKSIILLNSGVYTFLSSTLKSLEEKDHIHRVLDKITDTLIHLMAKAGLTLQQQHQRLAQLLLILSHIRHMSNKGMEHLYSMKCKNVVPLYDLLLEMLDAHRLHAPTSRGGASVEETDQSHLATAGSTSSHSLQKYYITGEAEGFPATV
Description: Antagonist activity at ERalpha (unknown origin) assessed as inhibition of fluorescein-labeled PGC-1 coactivator recruitment incubated for 30 mins measured by TR-FRET assay

| Compound | T/C [1] | also measured |
| --- | --- | --- |
| CCC(=C(c1ccc(O)cc1)c1ccc(/C=C/C(=O)NCCCNC(=O)CCCn2c(=S)[nH]c3ccccc3c2=O)cc1)c1ccccc1 (mixture of isomers) | 40% |  |
| CCC(=C(c1ccc(O)cc1)c1ccc(/C=C/C(=O)NCCCCCCNC(=O)CCc2nc3cc(OC)ccc3[nH]2)cc1)c1ccccc1 (mixture of isomers) | 40% |  |
| C[C@]12CC[C@@H]3c4ccc(O)cc4C[C@@H](CCCCCCCCC[S+]([O-])CCCC(F)(F)C(F)(F)F)[C@H]3[C@@H]1CC[C@@H]2O (stereo partly specified) [FULVESTRANT] |  | T/C [2]: 30% |
| CCC(=C(c1ccc(O)cc1)c1ccc(/C=C/C(=O)NCCCCCNC(=O)CCc2nc3cc(O)ccc3[nH]2)cc1)c1ccccc1 (mixture of isomers) |  | IC50 [3]: 125 nM |
| CCC(=C(c1ccc(O)cc1)c1ccc(/C=C/C(=O)NCCCNC(=O)c2ccc(N3CCN(C(=O)CCCn4c(=S)[nH]c5ccccc5c4=O)CC3)cc2)cc1)c1ccccc1 (mixture of isomers) | 40% |  |
| CCC(=C(c1ccc(O)cc1)c1ccc(/C=C/C(=O)NCCCCCCNC(=O)CCc2nc3cc(O)ccc3[nH]2)cc1)c1ccccc1 (mixture of isomers) | 40% |  |
